Ki data for 31 compounds are collected here from patent US10392391B2 (Vertex Pharmaceuticals Incorporated, priority 2012, dated 2019).

The term pKi denotes the Ki on a negative log10 scale, so that one unit is a factor of ten.

pKi: −log10 of the molar value.

The first assay deals with ATR kinase (full-length ATR) (Homo sapiens (Human), UniProt Q13535). Description: ATR inhibition assay (radioactive-phosphate incorporation). It counts as biochemical.
ATR kinase (full-length ATR), sequence (Q13535 whole entry): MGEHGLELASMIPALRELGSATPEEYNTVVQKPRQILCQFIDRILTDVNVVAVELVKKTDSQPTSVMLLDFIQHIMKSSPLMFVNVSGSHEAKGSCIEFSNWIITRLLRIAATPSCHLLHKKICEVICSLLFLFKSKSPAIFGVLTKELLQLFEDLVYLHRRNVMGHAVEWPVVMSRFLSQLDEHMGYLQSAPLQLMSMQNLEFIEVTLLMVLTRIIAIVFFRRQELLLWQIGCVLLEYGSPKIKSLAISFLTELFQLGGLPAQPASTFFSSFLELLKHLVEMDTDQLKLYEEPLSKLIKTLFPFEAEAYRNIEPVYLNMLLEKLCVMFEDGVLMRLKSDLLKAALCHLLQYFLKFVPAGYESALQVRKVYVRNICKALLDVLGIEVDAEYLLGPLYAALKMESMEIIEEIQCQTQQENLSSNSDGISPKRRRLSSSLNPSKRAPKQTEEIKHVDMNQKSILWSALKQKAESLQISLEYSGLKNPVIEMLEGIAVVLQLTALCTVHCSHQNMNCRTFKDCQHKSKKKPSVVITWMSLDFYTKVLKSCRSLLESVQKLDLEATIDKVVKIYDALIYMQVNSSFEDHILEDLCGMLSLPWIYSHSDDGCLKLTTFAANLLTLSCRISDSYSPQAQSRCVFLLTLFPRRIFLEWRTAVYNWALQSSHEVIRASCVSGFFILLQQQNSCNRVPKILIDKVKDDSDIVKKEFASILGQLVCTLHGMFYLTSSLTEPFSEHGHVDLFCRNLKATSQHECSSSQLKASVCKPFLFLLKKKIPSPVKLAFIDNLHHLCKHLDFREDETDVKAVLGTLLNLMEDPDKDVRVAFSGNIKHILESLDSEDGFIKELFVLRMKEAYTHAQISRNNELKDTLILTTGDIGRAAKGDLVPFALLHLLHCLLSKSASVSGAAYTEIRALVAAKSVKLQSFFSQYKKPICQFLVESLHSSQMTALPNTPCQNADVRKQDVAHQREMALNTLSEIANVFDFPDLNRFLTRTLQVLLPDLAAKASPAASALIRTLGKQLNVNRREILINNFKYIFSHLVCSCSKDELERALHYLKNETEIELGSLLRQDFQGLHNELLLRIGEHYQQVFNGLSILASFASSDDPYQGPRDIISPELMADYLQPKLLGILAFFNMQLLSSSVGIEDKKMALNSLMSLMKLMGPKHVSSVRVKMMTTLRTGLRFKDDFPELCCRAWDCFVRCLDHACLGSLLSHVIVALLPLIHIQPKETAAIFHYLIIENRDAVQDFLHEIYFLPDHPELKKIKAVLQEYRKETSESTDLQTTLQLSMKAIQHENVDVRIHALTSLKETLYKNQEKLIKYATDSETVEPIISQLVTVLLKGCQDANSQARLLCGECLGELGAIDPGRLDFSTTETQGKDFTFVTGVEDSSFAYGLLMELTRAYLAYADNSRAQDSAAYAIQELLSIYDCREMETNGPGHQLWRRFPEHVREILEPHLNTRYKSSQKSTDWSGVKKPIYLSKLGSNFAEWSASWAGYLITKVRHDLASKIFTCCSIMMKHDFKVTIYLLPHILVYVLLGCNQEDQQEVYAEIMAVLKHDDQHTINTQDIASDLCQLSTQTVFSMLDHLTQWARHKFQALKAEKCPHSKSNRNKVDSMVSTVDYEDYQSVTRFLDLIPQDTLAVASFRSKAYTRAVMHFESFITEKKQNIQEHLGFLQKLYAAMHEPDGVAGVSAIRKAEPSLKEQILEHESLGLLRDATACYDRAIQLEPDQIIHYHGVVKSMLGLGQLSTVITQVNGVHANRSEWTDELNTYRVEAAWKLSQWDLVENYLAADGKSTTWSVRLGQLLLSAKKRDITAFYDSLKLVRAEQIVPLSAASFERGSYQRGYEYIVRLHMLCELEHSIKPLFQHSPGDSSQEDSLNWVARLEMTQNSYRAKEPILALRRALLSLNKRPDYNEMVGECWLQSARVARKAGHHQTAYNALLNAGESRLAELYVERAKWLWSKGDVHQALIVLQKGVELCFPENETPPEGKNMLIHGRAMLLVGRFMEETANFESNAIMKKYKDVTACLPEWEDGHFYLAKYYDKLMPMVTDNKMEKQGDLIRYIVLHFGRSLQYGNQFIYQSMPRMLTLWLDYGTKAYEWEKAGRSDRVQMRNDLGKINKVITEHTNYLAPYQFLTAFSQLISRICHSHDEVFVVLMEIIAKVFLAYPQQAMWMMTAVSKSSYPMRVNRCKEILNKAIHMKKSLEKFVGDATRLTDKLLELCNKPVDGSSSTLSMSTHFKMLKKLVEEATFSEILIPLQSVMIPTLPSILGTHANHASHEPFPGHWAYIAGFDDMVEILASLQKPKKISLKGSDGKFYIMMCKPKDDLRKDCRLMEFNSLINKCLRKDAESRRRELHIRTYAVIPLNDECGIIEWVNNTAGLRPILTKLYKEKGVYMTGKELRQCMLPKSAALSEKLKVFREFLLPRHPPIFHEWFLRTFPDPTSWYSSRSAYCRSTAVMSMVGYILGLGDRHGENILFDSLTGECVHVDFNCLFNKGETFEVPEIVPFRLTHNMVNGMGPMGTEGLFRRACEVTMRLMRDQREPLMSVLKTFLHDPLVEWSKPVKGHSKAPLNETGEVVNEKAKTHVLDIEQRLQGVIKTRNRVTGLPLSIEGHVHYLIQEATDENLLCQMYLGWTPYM
Conditions: not given
Put shortly:
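Radiometric 33P incorporation by 5 nM full-length ATR into 800 μM target peptide with 10 μM [γ-33P]ATP, in 50 mM Tris/HCl pH 7.5, 10 mM MgCl2, 1 mM DTT, 7% DMSO, 25° C. Compound pre-incubated 10 minutes; reaction stopped after 24 hours, captured on phosphocellulose. Ki(app) from non-linear regression of initial rates.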
For the compound `Nc1nn2cc(F)cnc2c1C(=O)Nc1cnccc1CN1CCCC1=O` [I-C-76, 2-amino-6-fluoro-N-(4-((2-oxopyrrolidin-1-yl)methyl)pyridin-3-yl)pyrazolo[1,5-a]pyrimidine-3-carboxamide], the pKi is 5.30 to 6.00.
Still for that read-out and setting: the figure for `Nc1nn2cc(F)cnc2c1C(=O)Nc1cncc(F)c1N1CCC(C(=O)N2CC(O)C2)CC1` [I-G-41, 2-amino-6-fluoro-N-(5-fluoro-4-(4-(3-hydroxyazetidine-1-carbonyl)piperidin-1-yl)pyridin-3-yl)pyrazolo[1,5-a]pyrimidine-3-carboxamide] is 5.30 to 6.00.

The same assay, now with this note: Ki(app), 5 nM full-length ATR, 10 μM ATP, 25° C.
For `Nc1nn2cc(Cl)cnc2c1C(=O)Nc1cnccc1N1CCC(N2CCC3(COC3)C2)CC1` [I-N-99, N-(4-(4-(2-oxa-6-azaspiro[3.4]octan-6-yl)piperidin-1-yl)pyridin-3-yl)-2-amino-6-chloropyrazolo[1,5-a]pyrimidine-3-carboxamide], the negative-log Ki (pKi) was 6.00 to 8.00.
Still for that read-out and setting: the figure for `CN1CC2(CCN(c3ccncc3NC(=O)c3c(N)nn4cc(F)cnc34)CC2)CC1=O` [I-N-236, 2-amino-6-fluoro-N-(4-(2-methyl-3-oxo-2,8-diazaspiro[4.5]decan-8-yl)pyridin-3-yl)pyrazolo[1,5-a]pyrimidine-3-carboxamide] is 6.00 to 8.00; for `CCOC1CN(C(=O)C2CCN(c3ccncc3NC(=O)c3c(N)nn4cc(F)cnc34)CC2)C1` [I-G-91, 2-amino-N-(4-(4-(3-ethoxyazetidine-1-carbonyl)piperidin-1-yl)pyridin-3-yl)-6-fluoropyrazolo[1,5-a]pyrimidine-3-carboxamide] it is 6.00 to 8.00; for `C[C@H]1CN(C(=O)C2CCN(c3c(F)cncc3NC(=O)c3c(N)nn4cc(F)cnc34)CC2)CCN1` [I-G-61, (S)-2-amino-6-fluoro-N-(5-fluoro-4-(4-(3-methylpiperazine-1-carbonyl)piperidin-1-yl)pyridin-3-yl)pyrazolo[1,5-a]pyrimidine-3-carboxamide] it is 6.00 to 8.00.
Turning to `Nc1nn2cc(F)cnc2c1C(=O)Nc1cnccc1C1CCN(C(=O)C23CCN(CC2)CC3)CC1` [I-C-18, 2-amino-6-fluoro-N-(4-(1-(quinuclidine-4-carbonyl)piperidin-4-yl)pyridin-3-yl)pyrazolo[1,5-a]pyrimidine-3-carboxamide], the pKi is 6.00 to 8.00.
Turning to `Nc1nn2cc(F)cnc2c1C(=O)Nc1cnccc1N1CCC(C(=O)N2CC3(CCO3)C2)CC1` [I-G-90, N-(4-(4-(1-oxa-6-azaspiro[3.3]heptane-6-carbonyl)piperidin-1-yl)pyridin-3-yl)-2-amino-6-fluoropyrazolo[1,5-a]pyrimidine-3-carboxamide], the pKi was 6.00 to 8.00.
Same read-out and setting: the figure for `COCCS(=O)(=O)C1CCN(c2ccncc2NC(=O)c2c(N)nn3cc(F)cnc23)CC1` [I-N-208, 2-amino-6-fluoro-N-(4-(4-((2-methoxyethyl)sulfonyl)piperidin-1-yl)pyridin-3-yl)pyrazolo[1,5-a]pyrimidine-3-carboxamide] is 6.00 to 8.00; for `CN1CCN2CCN(c3ccncc3NC(=O)c3c(N)nn4cc(Cl)cnc34)CC2C1` (stereo not shown) [I-N-61, 2-amino-6-chloro-N-(4-(8-methylhexahydro-1H-pyrazino[1,2-a]pyrazin-2(6H)-yl)pyridin-3-yl)pyrazolo[1,5-a]pyrimidine-3-carboxamide] it is 6.00 to 8.00; for `CN(C)S(=O)(=O)C1CCN(c2c(F)cncc2NC(=O)c2c(N)nn3cc(F)cnc23)CC1` [I-N-146, 2-amino-N-(4-(4-(N,N-dimethylsulfamoyl)piperidin-1-yl)-5-fluoropyridin-3-yl)-6-fluoropyrazolo[1,5-a]pyrimidine-3-carboxamide] it is 6.00 to 8.00.
Same read-out and setting: the same measure for `CC(=O)N1CCCC12CCN(c1ccncc1NC(=O)c1c(N)nn3cc(F)cnc13)CC2` [I-N-262, N-(4-(1-acetyl-1,8-diazaspiro[4.5]decan-8-yl)pyridin-3-yl)-2-amino-6-fluoropyrazolo[1,5-a]pyrimidine-3-carboxamide]: 6.00 to 8.00; for `Nc1nn2cc(F)cnc2c1C(=O)Nc1cnccc1C1CCOC1` (stereo not shown) [I-C-75, 2-amino-6-fluoro-N-(4-(tetrahydrofuran-3-yl)pyridin-3-yl)pyrazolo[1,5-a]pyrimidine-3-carboxamide]: 6.00 to 8.00.
With `CN1CC2CN(c3c(Cl)cncc3NC(=O)c3c(N)nn4cc(F)cnc34)CC2C1` (stereo not shown) [I-N-286, 2-amino-N-(5-chloro-4-(5-methylhexahydropyrrolo[3,4-c]pyrrol-2(1H)-yl)pyridin-3-yl)-6-fluoropyrazolo[1,5-a]pyrimidine-3-carboxamide], the negative-log Ki (pKi) is 6.00 to 8.00.
In the case of `Nc1nn2cc(F)cnc2c1C(=O)Nc1cncc(Cl)c1N1CCC(C(=O)N2CCN3CCC2CC3)CC1` [I-G-66, N-(4-(4-(1,4-diazabicyclo[3.2.2]nonane-4-carbonyl)piperidin-1-yl)-5-chloropyridin-3-yl)-2-amino-6-fluoropyrazolo[1,5-a]pyrimidine-3-carboxamide], the pKi is 6.00 to 8.00.
Take `Nc1nn2cc(F)cnc2c1C(=O)Nc1cncc(F)c1N1CCN2C(=O)CCC2C1` (stereo not shown) [I-N-163, 2-amino-6-fluoro-N-(5-fluoro-4-(6-oxohexahydropyrrolo[1,2-a]pyrazin-2(1H)-yl)pyridin-3-yl)pyrazolo[1,5-a]pyrimidine-3-carboxamide]: the pKi is 6.00 to 8.00.
On the same count and under the same terms, the same measure for `Nc1nn2cc(F)cnc2c1C(=O)Nc1cnccc1N1CCN2C(=O)CC[C@H]2C1` [I-N-217, (S)-2-amino-6-fluoro-N-(4-(6-oxohexahydropyrrolo[1,2-a]pyrazin-2(1H)-yl)pyridin-3-yl)pyrazolo[1,5-a]pyrimidine-3-carboxamide]: 6.00 to 8.00; for `Nc1nn2cc(F)cnc2c1C(=O)Nc1cncc(F)c1N1CCC(C(=O)N2CCC(N3CCCC3)CC2)CC1` [I-G-59, 2-amino-6-fluoro-N-(5-fluoro-4-(4-(4-(pyrrolidin-1-yl)piperidine-1-carbonyl)piperidin-1-yl)pyridin-3-yl)pyrazolo[1,5-a]pyrimidine-3-carboxamide]: 6.00 to 8.00; for `CN(C)[C@@H]1CCN(C(=O)C2CCN(c3c(F)cncc3NC(=O)c3c(N)nn4cc(F)cnc34)CC2)C1` [I-G-11, (R)-2-amino-N-(4-(4-(3-(dimethylamino)pyrrolidine-1-carbonyl)piperidin-1-yl)-5-fluoropyridin-3-yl)-6-fluoropyrazolo[1,5-a]pyrimidine-3-carboxamide]: 6.00 to 8.00.
Turning to `CN1CCN(C(=O)[C@H]2CC[C@@H](Oc3ccncc3NC(=O)c3c(N)nn4cc(F)cnc34)CC2)CC1` [I-O-19, 2-amino-6-fluoro-N-(4-(((1s,4s)-4-(4-methylpiperazine-1-carbonyl)cyclohexyl)oxy)pyridin-3-yl)pyrazolo[1,5-a]pyrimidine-3-carboxamide], the pKi was 6.00 to 8.00.
The same measure, in the same setting: the same measure for `CN1CCN(C(=O)N2CCN(c3c(F)cncc3NC(=O)c3c(N)nn4cc(F)cnc34)CC2)CC1` [I-N-140, 2-amino-6-fluoro-N-(5-fluoro-4-(4-(4-methylpiperazine-1-carbonyl)piperazin-1-yl)pyridin-3-yl)pyrazolo[1,5-a]pyrimidine-3-carboxamide]: 6.00 to 8.00.
On to `CN1CCN(c2c(F)cncc2NC(=O)c2c(N)nn3cc(CC#N)cnc23)CC1` [I-N-80, 2-amino-6-(cyanomethyl)-N-(5-fluoro-4-(4-methylpiperazin-1-yl)pyridin-3-yl)pyrazolo[1,5-a]pyrimidine-3-carboxamide], for which the pKi is 6.00 to 8.00.
With `Nc1nn2cc(Cl)cnc2c1C(=O)Nc1cnccc1OC1CCNCC1` [I-O-80, 2-amino-6-chloro-N-(4-(piperidin-4-yloxy)pyridin-3-yl)pyrazolo[1,5-a]pyrimidine-3-carboxamide], the pKi is 6.00 to 8.00.
Same read-out and setting: the figure for `N#CCc1cnc2c(C(=O)Nc3cnccc3OC3CNC3)c(N)nn2c1` [I-O-82, 2-amino-N-(4-(azetidin-3-yloxy)pyridin-3-yl)-6-(cyanomethyl)pyrazolo[1,5-a]pyrimidine-3-carboxamide] is above 8.00.
In the case of `CC(C)N1CCCC1C(=O)N1CCN(c2c(F)cncc2NC(=O)c2c(N)nn3cc(F)cnc23)CC1` (stereo not shown) [I-N-205, 2-amino-6-fluoro-N-(5-fluoro-4-(4-(1-isopropylpyrrolidine-2-carbonyl)piperazin-1-yl)pyridin-3-yl)pyrazolo[1,5-a]pyrimidine-3-carboxamide], the pKi was 6.00 to 8.00.
The same measure, in the same setting: the figure for `Nc1nn2cc(F)cnc2c1C(=O)Nc1cnccc1N1CCC(C(=O)N2CC3(COC3)C2)CC1` [I-G-88, N-(4-(4-(2-oxa-6-azaspiro[3.3]heptane-6-carbonyl)piperidin-1-yl)pyridin-3-yl)-2-amino-6-fluoropyrazolo[1,5-a]pyrimidine-3-carboxamide] is 6.00 to 8.00; for `CCN1CCC(C(=O)N2CCN(c3c(F)cncc3NC(=O)c3c(N)nn4cc(F)cnc34)CC2)C1` (stereo not shown) [I-N-207, 2-amino-N-(4-(4-(1-ethylpyrrolidine-3-carbonyl)piperazin-1-yl)-5-fluoropyridin-3-yl)-6-fluoropyrazolo[1,5-a]pyrimidine-3-carboxamide] it is 6.00 to 8.00.
`Nc1nn2cc(Cl)cnc2c1C(=O)Nc1cnccc1O[C@@H]1CCOC1` [I-O-54, (R)-2-amino-6-chloro-N-(4-((tetrahydrofuran-3-yl)oxy)pyridin-3-yl)pyrazolo[1,5-a]pyrimidine-3-carboxamide]: the pKi is 6.00 to 8.00.
Still for that read-out and setting: the figure for `CN1CCN(C(=O)c2ccc(-c3ccncc3NC(=O)c3c(N)nn4cc(F)cnc34)cn2)CC1` [I-C-19, 2-amino-6-fluoro-N-(6-(4-methylpiperazine-1-carbonyl)-[3,4′-bipyridin]-3′-yl)pyrazolo[1,5-a]pyrimidine-3-carboxamide] is 6.00 to 8.00.
Same read-out and setting: the same measure for `COCCn1cncc1-c1ccncc1NC(=O)c1c(N)nn2cc(F)cnc12` [I-C-83, 2-amino-6-fluoro-N-(4-(1-(2-methoxyethyl)-1H-imidazol-5-yl)pyridin-3-yl)pyrazolo[1,5-a]pyrimidine-3-carboxamide]: 6.00 to 8.00; for `Nc1nn2cc(F)cnc2c1C(=O)Nc1cncc(Cl)c1N1CCCC1` [I-N-281, 2-amino-N-(5-chloro-4-(pyrrolidin-1-yl)pyridin-3-yl)-6-fluoropyrazolo[1,5-a]pyrimidine-3-carboxamide]: 6.00 to 8.00.
